Among the test systems are SR leukemia; MCF7 breast; NCI-H522 lung; SK-OV-3 ovarian; LOX IMVI melanoma; OVCAR-5 ovarian; RPMI-8226 leukemia; SW-620 colon; SK-MEL-2 melanoma; NCI/ADR-RES ovarian.
Common to all, as to assay: NCI anticancer screen, dose series, 48 h

The structures appear in SMILES notation.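 Five compound concentrations were applied to cells in 96-well plates for 48 hours; endpoints were derived by simple linear interpolation of the resulting dose-response curve. GI50 is the concentration that inhibits growth by half. TGI: total growth inhibition.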

Take `O=C(O)c1cc(N=Cc2ccccc2O)cc(C(=O)O)c1`: the TGI with SR leukemia, in the assay with MCF7 breast, in the assay with NCI-H522 lung, in the assay on SK-OV-3 ovarian, with LOX IMVI melanoma and in the assay on OVCAR-5 ovarian was over 100 µM each time. For the same compound, the TGI in the assay on RPMI-8226 leukemia, in the assay with SW-620 colon, in the assay with SK-MEL-2 melanoma and in the assay with NCI/ADR-RES ovarian was over 100 µM each time.

Take `NS(=O)(=O)c1cccc(N=Cc2c(O)[nH]c3ccccc23)c1`: the GI50 in the assay on SR leukemia was over 25 µM; in the assay on MCF7 breast it was over 25 µM; in the assay with NCI-H522 lung it was 24.4 µM; with SK-OV-3 ovarian it was over 18.5 µM; with LOX IMVI melanoma, over 25 µM; with OVCAR-5 ovarian it was over 25 µM. In addition, the GI50 in the assay with RPMI-8226 leukemia, with SW-620 colon, in the assay on SK-MEL-2 melanoma and in the assay on NCI/ADR-RES ovarian was over 25 µM in each case. For the same compound, the TGI with SR leukemia, in the assay on MCF7 breast, in the assay with NCI-H522 lung, in the assay with SK-OV-3 ovarian, in the assay on LOX IMVI melanoma and with OVCAR-5 ovarian was over 25 µM throughout. Further, the TGI with RPMI-8226 leukemia, in the assay on SW-620 colon, in the assay with SK-MEL-2 melanoma and in the assay on NCI/ADR-RES ovarian was over 25 µM each time.

For `COc1ccc(C(=O)c2cc3c(OC)c(OC)c(OC)cc3[nH]2)cc1`, the GI50 in the assay with SR leukemia was 0.295 µM; in the assay with MCF7 breast, 1.32 µM; in the assay with NCI-H522 lung, 1.55 µM; in the assay with SK-OV-3 ovarian, over 100 µM; with LOX IMVI melanoma, 4.91 µM; in the assay with OVCAR-5 ovarian, 66.9 µM. For the same compound, the GI50 with RPMI-8226 leukemia was 2.81 µM; in the assay on SW-620 colon it was 5.87 µM; in the assay with NCI/ADR-RES ovarian it was 3.2 µM. The TGI with SR leukemia is 2.57 µM; in the assay on MCF7 breast, over 100 µM; with NCI-H522 lung, 6.04 µM; in the assay with SK-OV-3 ovarian it was over 100 µM; in the assay with LOX IMVI melanoma, over 100 µM; in the assay on OVCAR-5 ovarian, over 100 µM. For the same compound, the TGI in the assay on RPMI-8226 leukemia was 8.13 µM; with SW-620 colon, over 100 µM; in the assay on NCI/ADR-RES ovarian, 40.9 µM.

Consider `COc1cccc2c1C(=O)c1c(O)c3c(c(O)c1C2=O)C[C@@](O)(C(=O)CO)C[C@@H]3OC1C[C@H](N)[C@H](O)[C@H](C)O1` (stereo partly specified), for which the GI50 in the assay on SR leukemia is 0.00558 µM; in the assay with MCF7 breast it was 0.00926 µM; in the assay with NCI-H522 lung, 0.0334 µM; with SK-OV-3 ovarian, 0.107 µM; in the assay on LOX IMVI melanoma, 0.0178 µM; with OVCAR-5 ovarian, 0.214 µM. The GI50 with RPMI-8226 leukemia is 0.0909 µM; in the assay with SW-620 colon, 0.0312 µM; in the assay on SK-MEL-2 melanoma, 0.141 µM. Moreover, the TGI in the assay with SR leukemia turned out to be 0.826 µM; in the assay on MCF7 breast, 4.15 µM; in the assay on NCI-H522 lung, 0.317 µM; with SK-OV-3 ovarian it was 10.9 µM; in the assay with LOX IMVI melanoma, 0.181 µM; in the assay on OVCAR-5 ovarian it was 14.5 µM. Besides, the TGI with RPMI-8226 leukemia was 1.28 µM; in the assay on SW-620 colon it was 2.97 µM; in the assay with SK-MEL-2 melanoma, 5.47 µM.

In the case of `CCN(CCCl)CCCNc1c2ccccc2nc2ccc(OC)cc12`, the TGI was 1.04 µM with SR leukemia, 0.669 µM in the assay with LOX IMVI melanoma and 1.39 µM in the assay with SW-620 colon. Besides, the GI50 in the assay on NCI-H522 lung is 103 µM; in the assay on SK-OV-3 ovarian it was 446 µM; in the assay with OVCAR-5 ovarian, 286 µM; in the assay on SK-MEL-2 melanoma, 587 µM.

Take `c1ccc2c(c1)[nH]c1cnc3c4cccnc4[nH]c3c12`: the TGI in the assay with SR leukemia was 48.7 µM; with LOX IMVI melanoma, 45 µM; in the assay with OVCAR-5 ovarian, 40.3 µM; in the assay with RPMI-8226 leukemia it was 58.5 µM; with SW-620 colon, 32.3 µM.

For `O=C1CN(C(=O)c2ccccc2)Cc2[nH]c3ccccc3c21`, the TGI in the assay on SR leukemia, with NCI-H522 lung, in the assay with SK-OV-3 ovarian, in the assay with LOX IMVI melanoma, in the assay on OVCAR-5 ovarian and in the assay on RPMI-8226 leukemia was over 100 µM each time. For the same compound, the TGI with SW-620 colon and with SK-MEL-2 melanoma was over 100 µM throughout.

For `CCCCOC(=O)NC(=O)c1cn(CCSCCOC(=O)NCCCCCCNC(=O)OCCSCCn2cc(C(=O)NC(=O)OCCCC)c(=O)[nH]c2=O)c(=O)[nH]c1=O`, the TGI with SR leukemia, in the assay on NCI-H522 lung, in the assay with SK-OV-3 ovarian, in the assay with LOX IMVI melanoma, in the assay with OVCAR-5 ovarian and in the assay on RPMI-8226 leukemia was over 100 µM each time. In the assay on SK-MEL-2 melanoma, this compound showed a TGI of over 100 µM.

As to `c1cn2cc(-c3ccc4cn[nH]c4c3)nc(Nc3ccc(N4CCOCC4)cc3)c2n1`, the GI50 with SR leukemia was 6.66 µM; in the assay on MCF7 breast it was 10.6 µM; with NCI-H522 lung it was 12.3 µM; in the assay with SK-OV-3 ovarian, 6.43 µM; in the assay on LOX IMVI melanoma, 17.8 µM; in the assay with RPMI-8226 leukemia, 18.5 µM. For the same compound, the GI50 is 26.7 µM in the assay with SW-620 colon, 36.1 µM with SK-MEL-2 melanoma and 11.1 µM in the assay on NCI/ADR-RES ovarian. The TGI was 27.5 µM in the assay on SR leukemia; 25.1 µM with MCF7 breast; 39 µM with NCI-H522 lung; 19.6 µM in the assay on SK-OV-3 ovarian; over 100 µM with LOX IMVI melanoma; 86.6 µM in the assay on RPMI-8226 leukemia. Further, the TGI is over 100 µM in the assay with SW-620 colon, over 100 µM with SK-MEL-2 melanoma and 32.4 µM in the assay with NCI/ADR-RES ovarian.

Consider `COc1ccc(/C=C\c2cc(OC)c(OC)c(OC)c2)cc1OC(=O)CCC(=O)O`, for which the TGI in the assay with SR leukemia, in the assay on MCF7 breast, with SK-OV-3 ovarian, with LOX IMVI melanoma, in the assay with RPMI-8226 leukemia and in the assay with SW-620 colon was over 100 µM in each case. Besides, the TGI in the assay with SK-MEL-2 melanoma is over 100 µM. The GI50 in the assay with SK-OV-3 ovarian is 0.0442 µM.

As for `CC(=O)OC1CC2(O)C3CCC4CC(O)CCC4(C)C3CCC2(C)C1C1=CC(=O)OC1` (stereo unspecified), the TGI in the assay with SR leukemia is 0.131 µM; in the assay on NCI-H522 lung it was 0.185 µM; in the assay on SK-OV-3 ovarian it was 0.642 µM; in the assay on LOX IMVI melanoma, 0.209 µM; in the assay with OVCAR-5 ovarian it was 0.451 µM; in the assay on RPMI-8226 leukemia it was 0.445 µM. Moreover, the TGI in the assay on SW-620 colon worked out at 1.41 µM; in the assay on SK-MEL-2 melanoma it was 0.505 µM; in the assay on NCI/ADR-RES ovarian, 0.298 µM.

`Fc1ccc(C2SCc3nc4ccccc4n32)cc1` (stereo unspecified): the TGI in the assay on SR leukemia is 96.6 µM; in the assay on NCI-H522 lung, 70.9 µM; in the assay with SK-OV-3 ovarian, over 100 µM; in the assay on LOX IMVI melanoma it was over 100 µM; with OVCAR-5 ovarian, 99.4 µM; in the assay with RPMI-8226 leukemia it was over 100 µM. The TGI in the assay with SW-620 colon and in the assay with SK-MEL-2 melanoma was over 100 µM in each case.

Source of the values: PubChem BioAssay (NCI).
